Earlier results, collected in patent EP0214616A2, “Acetylenic prostaglandins” (G.D. Searle & Co., priority 1985, dated 1987).

Tested on: gastric secretion
Settings: at the highest dose tested (100ug/kg)

CCCCC(C)(O)C/C=C/[C@H]1[C@H](O)CC(=O)[C@@H]1CCC#CCCC(=O)OC (mixture of isomers) [Example C90001]
gastric antisecretory activity: devoid of gastric antisecretory activity
